Assay results reported in patent publication US4621076A, “Pharmaceutical composition useful for inhibiting platelet aggregation” (Meito Sangyo Kabushiki Kaisha, priority 1982, dated 1986).
Counter-ions that a name gives are not always drawn.

What was measured:
[1] = test system: thrombin-induced platelet aggregation; assay: Inhibitory effect on thrombin-induced platelet aggregation in vitro, Table 2; type: cell-based, human (healthy person)
Experimental: Blood was drawn from the cubital vein of a healthy person with a care taken to avoid congestion. […] 0.1 ml of a solution of 5'-GMP sodium salt in each of the concentrations shown in Table 1 below was added to 0.7 ml of PRP, and then each of the various platelet aggregation inducing agents shown in Table 1 was added. Changes in absorbance were measured by an aggregometer (made by Evans Company), and the rate of platelet aggregation inhibition was calculated from the following equation.
The same experiment as in (1) above was carried out except that […] of thrombin was used as a platelet aggregation inducing agent.

platelet aggregation [2] = conditions: cited from earlier work
[3] = test system: thrombin-induced platelet aggregation; assay: Thrombin-induced platelet aggregation (inventors' test of 5'-GDP); type: cell-based; conditions: tests conducted by the present inventors
[4] = test system: 5'-ADP-induced platelet aggregation; conditions: at high concentrations; cited from earlier work
[5] = test system: platelet aggregation induced by arachidonic acid; assay: Inhibition of arachidonic acid-induced platelet aggregation in vitro (method of Born, human PRP, aggregometer); type: cell-based, human (healthy person); conditions: arachidonic acid 55.5 γ/ml, read-out: Rate of inhibition (%)
Experimental: (§1) (1) Inhibitory effect of GMP on platelet aggregation induced by various platelet aggregation inducing substances:
(§2) The inhibitory effect was measured by the method of Born (J. Physiol., vol. 168, p. 178, 1963).
(§3) Blood was drawn from the cubital vein of a healthy person with a care taken to avoid congestion. One part by volume of a 3.8% sodium citrate solution was added to 9 parts by volume of the blood, and the mixture was centrifuged at 1,000 rpm for 10 minutes at room temperature to obtain platelet-rich plasma (PRP). 0.1 ml of a solution of 5'-GMP sodium salt in each of the concentrations shown in Table 1 below was added to 0.7 ml of PRP, and then each of the various platelet aggregation inducing agents shown in Table 1 was added. Changes in absorbance were measured by an aggregometer (made by Evans Company), and the rate of platelet aggregation inhibition was calculated from the following equation.

[6] = test system: platelet aggregation induced by collagen; assay: Inhibition of collagen-induced platelet aggregation in vitro (method of Born, human PRP, aggregometer); type: cell-based, human (healthy person); conditions: collagen 5.5 γ/ml, read-out: Rate of inhibition (%)
Experimental: as §1, §2, §3

[7] = test system: platelet aggregation induced by 5'-ADP; assay: Inhibition of 5'-ADP-induced platelet aggregation in vitro (method of Born, human PRP, aggregometer); type: cell-based, human (healthy person); conditions: 5'-ADP 55.5 γ/ml, read-out: Rate of inhibition (%)
Experimental: as §1, §2, §3

[8] = test system: platelet aggregation induced by norepinephrine; assay: Inhibition of norepinephrine-induced platelet aggregation in vitro (method of Born, human PRP, aggregometer); type: cell-based, human (healthy person); conditions: norepinephrine 55.5 γ/ml, sample 1.00 mg/ml, read-out: Rate of inhibition (%)
Experimental: as §1, §2, §3

[9] = test system: platelet aggregation induced by thrombin; assay: Inhibition of thrombin-induced platelet aggregation in vitro, Table 1 (method of Born, human PRP, aggregometer); type: cell-based, human (healthy person)
Experimental: as §1, §2, §3

[10] = test system: platelet aggregation (thrombin-induced); assay: Duration of the platelet aggregation inhibiting effect in vivo in rabbits (thrombin added to PRP); conditions: rabbit
Experimental: (3) Inhibitory effect on platelet aggregation in vivo:
(1) Duration of the aggregation inhibiting effect.
(§4) 5'-GMP sodium salt was administered to rabbits intravenously in a dose of 50 mg/kg or orally in a dose of 1 g/kg. After a predetermined period of time (30 seconds to 4 minutes in the case of intravenous injection, and 1 to 5 hours in oral administration), blood was drawn from the animals. One part by volume of a 3.8% solution of sodium citrate was added to 9 parts by volume of the blood, and the mixture was centrifuged at 1,000 rpm at room temperature for 10 minutes to obtain platelet-rich plasma (PRP). 0.1 ml of a thrombin solution (0.75 u/ml) was added to 0.7 ml of PRP, and then changes in absorbance were measured by an aggregometer (made by Evans Company).

platelet aggregation [11] = assay: Relation between dose of GMP and aggregation inhibiting effect in rabbits in vivo; conditions: rabbit, one hour after administration
Experimental: as §4
(2) Relation between the dose of GMP and the aggregation inhibiting effect.
Using rabbits, the dose response of the platelet aggregation inhibiting activity of 5'-GMP (sodium salt) in vivo was examined. 5'-GMP (sodium salt) was orally administered to the rabbits, and blood was drawn from the animals one hour after the administration. PRP was prepared in the same way as in section (1) above. The degree of platelet aggregation inhibition was measured by an aggregometer.

[12] = test system: platelet aggregation (thrombin-induced); assay: Inhibitory effect on platelet aggregation in humans in vivo (thrombin added to PRP); set-up: species or system human (healthy persons); conditions: for Rate of platelet aggregation inhibition (%): five healthy persons, oral one gram
Experimental: (4) Inhibitory effect on platelet aggregation in humans in vivo:
One gram of 5'-GMP (sodium salt) was administered orally to each of five healthy persons, and blood was drawn from them after a predetermined period of time. One part by volume of a 3.8% aqueous solution of sodium citrate was added to 9 parts by volume of the blood, and the mixture was centrifuged at room temperature for 10 minutes at 1,000 rpm to obtain platelet-rich plasma (PRP). 0.1 ml of a thrombin solution (0.75 u/ml) was added to 0.7 ml of PRP, and changes in absorbance were measured by an aggregometer (made by Evans Company).

[13] = Acute toxicity in mice (Litchfield-Wilcoxon); set-up: species or system mouse (ddY-strain); conditions: mouse, in vivo, ddY mice, parentheses: 95% reliability limits
Experimental: The acute toxicity of the compound of formula (I) in accordance with this invention was examined.
The test compound (guanosine 5'-monophosphate sodium salt) was dissolved in physiological saline, and the solution was administered to ddY-strain mice (body weight 20 to 25 g) intravenously or orally.
The parenthesized figures show 95% reliability limits.

[14] = test system: platelet aggregation induced by various platelet aggregation inducing substances; assay: Inhibition of platelet aggregation induced by various platelet aggregation inducing substances; type: cell-based, human (healthy person); conditions: Table 1
Experimental: as §1, §2, §3

Nc1nc2c(ncn2[C@@H]2O[C@H](CO)[C@@H](OP(=O)(O)O)[C@H]2O)c(=O)[nH]1 [3'-GMP (sodium salt), Guanosine 3'-monophosphate]
inhibition at 2000 µg/mL ([1]; Homo sapiens, Platelet, thrombin 0.25 μ/ml, compound 2.0 mg/ml, read-out: Inhibition rate (%)): 87% | Inhibition rate (%) ([1]; thrombin 0.25 μ/ml, compound 2.0 mg/ml): 80%

Nc1ncnc2c1ncn2[C@@H]1O[C@H](COP(=O)(O)OP(=O)(O)O)[C@@H](O)[C@H]1O [5'-ADP, adenosine 5'-diphosphate]
action on platelet aggregation (platelet aggregation [2]): promoting platelet aggregation

Nc1ncnc2c1ncn2[C@@H]1O[C@H](COP(=O)(O)O)[C@@H](O)[C@H]1O [5'-AMP, adenosine 5'-monophosphate]
action on platelet aggregation (platelet aggregation [2]): weak action of inhibiting platelet aggregation

Nc1nc2c(ncn2[C@@H]2O[C@H](COP(=O)(O)OP(=O)(O)O)[C@@H](O)[C@H]2O)c(=O)[nH]1 [5'-GDP, guanosine 5'-diphosphate]
inhibitory action on thrombin-induced platelet aggregation [3]: no inhibitory action on thrombin-induced platelet aggregation | inhibitory action on 5'-ADP-induced platelet aggregation [4]: inhibitory action on 5'-ADP-induced platelet aggregation

Nc1nc2c(ncn2[C@@H]2O[C@H](COP(=O)([O-])[O-])[C@@H](O)[C@H]2O)c(=O)[nH]1.[Na+].[Na+] [5'-GMP (sodium salt), guanosine 5'-monophosphate sodium salt]
inhibition at 10 µg/mL (stock) ([5]; sample 0.01 mg/ml): 22% | inhibition at 1000 µg/mL (stock) ([5]; sample 1.00 mg/ml): 40% | inhibition at 100 µg/mL (stock) ([6]; sample 0.10 mg/ml): 10% | inhibition at 1000 µg/mL (stock) ([6]; sample 1.00 mg/ml): 10% | inhibition at 100 µg/mL (stock) ([7]; sample 0.10 mg/ml): 3% | inhibition at 1000 µg/mL (stock) ([7]; sample 1.00 mg/ml): 10% | inhibition at 1000 µg/mL (stock) [8]: 8% | inhibition at 100 µg/mL ([9]; Homo sapiens, Platelet, read-out: Rate of inhibition (%)): 66% | inhibition at 1000 µg/mL (stock) ([9]; Homo sapiens, Platelet, thrombin 0.5 μ/ml, sample 1.0 mg/ml, read-out: Rate of inhibition (%)): 80% | inhibition at 10000 µg/mL (stock) ([9]; Homo sapiens, Platelet, thrombin 0.5 μ/ml, sample 10.0 mg/ml, read-out: Rate of inhibition (%)): 89% | inhibition at 500 µg/mL ([1]; Homo sapiens, Platelet, read-out: Inhibition rate (%), thrombin 0.25 μ/ml, compound 0.5 mg/ml): 75% | inhibition at 1000 µg/mL ([1]; Homo sapiens, Platelet, thrombin 0.25 μ/ml, compound 1.0 mg/ml, read-out: Inhibition rate (%)): 81% | Rate of platelet aggregation inhibition (%) ([10]; iv 50 mg/kg, 30 seconds): 94% | Rate of platelet aggregation inhibition (%) ([10]; iv 50 mg/kg, 60 seconds): 93% | Rate of platelet aggregation inhibition (%) ([10]; iv 50 mg/kg, 90 seconds): 59% | Rate of platelet aggregation inhibition (%) ([10]; iv 50 mg/kg, 120 seconds): 60% | Rate of platelet aggregation inhibition (%) ([10]; iv 50 mg/kg, 180 seconds): 62% | Rate of platelet aggregation inhibition (%) ([10]; iv 50 mg/kg, 240 seconds): 27% | Rate of platelet aggregation inhibition (%) ([10]; oral 1 g/kg, 1 hour): 95% | Rate of platelet aggregation inhibition (%) ([10]; oral 1 g/kg, 2 hours): 95% | Rate of platelet aggregation inhibition (%) ([10]; oral 1 g/kg, 3 hours): 93% | Rate of platelet aggregation inhibition (%) ([10]; oral 1 g/kg, 4 hours): 93% | Rate of platelet aggregation inhibition (%) ([10]; oral 1 g/kg, 5 hours): 83% | Rate of platelet aggregation inhibition (%) (platelet aggregation [11]; oral 0.5 g/kg): 38.8% | Rate of platelet aggregation inhibition (%) (platelet aggregation [11]; oral 1.0 g/kg): 61.0% | Rate of platelet aggregation inhibition (%) (platelet aggregation [11]; oral 1.5 g/kg): 75.2% | Rate of platelet aggregation inhibition (%) (platelet aggregation [11]; oral 2.0 g/kg): 80.3% | Rate of platelet aggregation inhibition (%) (platelet aggregation [11]; oral 3.0 g/kg): 100% | Rate of platelet aggregation inhibition (%) ([12]; 1.5 hours): 63% | Rate of platelet aggregation inhibition (%) ([12]; 3 hours): 75% | Rate of platelet aggregation inhibition (%) ([12]; 4.5 hours): 62% | LD50 at 72 h ([13]; iv): 3350 mg/kg | LD50 at 72 h ([13]; po): 14800 mg/kg

Nc1nc2c(ncn2[C@@H]2O[C@H](COP(=O)(O)O)[C@@H](O)[C@H]2O)c(=O)[nH]1 [5'-GMP, Guanosine 5'-monophosphate]
effect against thrombin-induced aggregation ([9]; Table 1): especially effective against thrombin-induced aggregation | duration of effect ([10]; oral administration): ≥ 5 h | inhibition of platelet aggregation ([10]; oral administration): marked inhibition of platelet aggregation | duration of effect ([12]; humans, oral administration): ≥ 4.5 h | inhibitory effect on aggregation inducing agents [14]: shows an inhibitory effect on all of the aggregation inducing agents tested
